From paper PMC2765569 (Biochemistry, 2009)

What was measured:
[1] = molecular target: FTase (wild-type protein farnesyltransferase) (Rattus norvegicus, UniProt Q02293+Q04631); assay: Single-turnover; assay type: biochemical; details: 800 nM FTase, 200 nM FPP, 25 μM peptide, 5 μM MDCC-PBP, 34 units mL^−1 PPiase, 50 mM HEPPSO pH 7.8, 5 mM TCEP, 5 mM MgCl2, 25 °C; for Single turnover rate constant kSTO, X=S: dansyl-GCVa2S panel
FTase = FTase (Rattus norvegicus, UniProt Q02293+Q04631); assay: Radioactive assay of FTase-catalyzed farnesylation; assay type: biochemical; details: data not shown, farnesylated slowly
Sequence of FTase (Q02293 whole entry, one chain of several): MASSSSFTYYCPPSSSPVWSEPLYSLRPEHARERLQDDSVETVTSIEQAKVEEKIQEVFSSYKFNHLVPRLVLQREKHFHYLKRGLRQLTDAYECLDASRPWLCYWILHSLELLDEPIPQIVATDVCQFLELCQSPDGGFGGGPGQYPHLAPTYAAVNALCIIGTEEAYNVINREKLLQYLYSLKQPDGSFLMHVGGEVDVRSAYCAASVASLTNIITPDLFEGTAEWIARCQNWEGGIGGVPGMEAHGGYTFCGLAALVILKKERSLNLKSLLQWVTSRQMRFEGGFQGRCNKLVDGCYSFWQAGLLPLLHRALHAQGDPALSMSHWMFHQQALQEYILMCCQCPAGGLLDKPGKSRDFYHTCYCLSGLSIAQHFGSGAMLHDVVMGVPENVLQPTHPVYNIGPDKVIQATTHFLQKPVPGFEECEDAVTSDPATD

Substance	Single turnover rate constant kSTO, X=S [1] [s⁻¹]	further results
dansyl-GCVGM	–	Single turnover rate constant kSTO, X=M ([1]; dansyl-GCVa2M panel): 0.26 ± 0.01 s⁻¹
dansyl-GCVRS	–	apparent value for kcat/KM (FTase): < 1000 M⁻¹ s⁻¹
dansyl-GCVLS	3.8 ± 0.5	–
dansyl-GCVGS	0.092 ± 0.004	–
